Measured values: PubChem BioAssay AID2060508 (Molecular Pharmacology Branch, DTP, NCI, 2025)

The molecules below were run on 454973-116-R2-J3-PDC spheroids, viability, % test/control (assay: Anticancer human tumor 454973-116-R2-J3-PDC patient-derived pancreatic carcinoma cell line growth inhibition [GQUAD]). Conditions: curve of first compound; second compound 0.0316 µM; spheroids with HUVEC and MSC.
In short: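 Tumor cells were grown as complex spheroids with HUVEC endothelial cells and mesenchymal stem cells as stroma. G-quadruplex stabilizers were combined with targeted agents over half-log dilutions from near the clinical Cmax, or from 10 microM.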
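Further: spheroids exposed to compounds for seven days.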
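Wherever viability, T/C is given: 100% = DMSO vehicle control viability.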

Compound | IC50 [µM]
CCCS(=O)(=O)Nc1ccc(F)c(C(=O)c2c[nH]c3ncc(-c4ccc(Cl)cc4)cc23)c1F + Cc1cnc(CNC(=O)c2c(=O)c3ccc(N4CCCN(C)CC4)nc3n3c2sc2ccccc23)cn1 | 6.44
COc1ncnc(C2CC2)c1-c1ncc2cnn(Cc3ccc(-c4nc(C(F)(F)F)cn4C(C)C)cc3)c2n1 + Cc1cnc(CNC(=O)c2c(=O)c3ccc(N4CCCN(C)CC4)nc3n3c2sc2ccccc23)cn1 | > 10
O=c1[nH]cc(F)c(=O)[nH]1 + Cc1cnc(CNC(=O)c2c(=O)c3ccc(N4CCCN(C)CC4)nc3n3c2sc2ccccc23)cn1 | 1.64

Same assay, conditions: curve of first compound; second compound 0.1 µM; spheroids with HUVEC and MSC

Compound | IC50 [µM]
CCCS(=O)(=O)Nc1ccc(F)c(C(=O)c2c[nH]c3ncc(-c4ccc(Cl)cc4)cc23)c1F + Cc1cnc(CNC(=O)c2c(=O)c3ccc(N4CCCN(C)CC4)nc3n3c2sc2ccccc23)cn1 | 5.99
COc1ncnc(C2CC2)c1-c1ncc2cnn(Cc3ccc(-c4nc(C(F)(F)F)cn4C(C)C)cc3)c2n1 + Cc1cnc(CNC(=O)c2c(=O)c3ccc(N4CCCN(C)CC4)nc3n3c2sc2ccccc23)cn1 | > 10
O=c1[nH]cc(F)c(=O)[nH]1 + Cc1cnc(CNC(=O)c2c(=O)c3ccc(N4CCCN(C)CC4)nc3n3c2sc2ccccc23)cn1 | 2.2

Same assay, conditions: curve of first compound; second compound 0.316 µM; spheroids with HUVEC and MSC

Compound | IC50 [µM]
CCCS(=O)(=O)Nc1ccc(F)c(C(=O)c2c[nH]c3ncc(-c4ccc(Cl)cc4)cc23)c1F + Cc1cnc(CNC(=O)c2c(=O)c3ccc(N4CCCN(C)CC4)nc3n3c2sc2ccccc23)cn1 | 5.08
COc1ncnc(C2CC2)c1-c1ncc2cnn(Cc3ccc(-c4nc(C(F)(F)F)cn4C(C)C)cc3)c2n1 + Cc1cnc(CNC(=O)c2c(=O)c3ccc(N4CCCN(C)CC4)nc3n3c2sc2ccccc23)cn1 | > 10
O=c1[nH]cc(F)c(=O)[nH]1 + Cc1cnc(CNC(=O)c2c(=O)c3ccc(N4CCCN(C)CC4)nc3n3c2sc2ccccc23)cn1 | > 10

Same assay, conditions: curve of first compound; second compound 1 µM; spheroids with HUVEC and MSC

Compound | IC50 [µM]
CCCS(=O)(=O)Nc1ccc(F)c(C(=O)c2c[nH]c3ncc(-c4ccc(Cl)cc4)cc23)c1F + Cc1cnc(CNC(=O)c2c(=O)c3ccc(N4CCCN(C)CC4)nc3n3c2sc2ccccc23)cn1 | 4.25
COc1ncnc(C2CC2)c1-c1ncc2cnn(Cc3ccc(-c4nc(C(F)(F)F)cn4C(C)C)cc3)c2n1 + Cc1cnc(CNC(=O)c2c(=O)c3ccc(N4CCCN(C)CC4)nc3n3c2sc2ccccc23)cn1 | > 10
O=c1[nH]cc(F)c(=O)[nH]1 + Cc1cnc(CNC(=O)c2c(=O)c3ccc(N4CCCN(C)CC4)nc3n3c2sc2ccccc23)cn1 | > 10

Same assay, conditions: curve of first compound; second compound 3.16 µM; spheroids with HUVEC and MSC

Compound | IC50 [µM]
CCCS(=O)(=O)Nc1ccc(F)c(C(=O)c2c[nH]c3ncc(-c4ccc(Cl)cc4)cc23)c1F + Cc1cnc(CNC(=O)c2c(=O)c3ccc(N4CCCN(C)CC4)nc3n3c2sc2ccccc23)cn1 | 5.13
COc1ncnc(C2CC2)c1-c1ncc2cnn(Cc3ccc(-c4nc(C(F)(F)F)cn4C(C)C)cc3)c2n1 + Cc1cnc(CNC(=O)c2c(=O)c3ccc(N4CCCN(C)CC4)nc3n3c2sc2ccccc23)cn1 | > 10
O=c1[nH]cc(F)c(=O)[nH]1 + Cc1cnc(CNC(=O)c2c(=O)c3ccc(N4CCCN(C)CC4)nc3n3c2sc2ccccc23)cn1 | > 10

Same assay, conditions: curve of first compound; second compound 10 µM; spheroids with HUVEC and MSC

Compound | IC50 [µM]
CCCS(=O)(=O)Nc1ccc(F)c(C(=O)c2c[nH]c3ncc(-c4ccc(Cl)cc4)cc23)c1F + Cc1cnc(CNC(=O)c2c(=O)c3ccc(N4CCCN(C)CC4)nc3n3c2sc2ccccc23)cn1 | < 0.0316
COc1ncnc(C2CC2)c1-c1ncc2cnn(Cc3ccc(-c4nc(C(F)(F)F)cn4C(C)C)cc3)c2n1 + Cc1cnc(CNC(=O)c2c(=O)c3ccc(N4CCCN(C)CC4)nc3n3c2sc2ccccc23)cn1 | < 0.0316
O=c1[nH]cc(F)c(=O)[nH]1 + Cc1cnc(CNC(=O)c2c(=O)c3ccc(N4CCCN(C)CC4)nc3n3c2sc2ccccc23)cn1 | < 0.0316

Same assay, conditions: second compound 0.0316 µM; first compound 0.0316 µM; stronger effect = lower value; spheroids with HUVEC and MSC

Compound | viability, T/C [%]
CCCS(=O)(=O)Nc1ccc(F)c(C(=O)c2c[nH]c3ncc(-c4ccc(Cl)cc4)cc23)c1F + Cc1cnc(CNC(=O)c2c(=O)c3ccc(N4CCCN(C)CC4)nc3n3c2sc2ccccc23)cn1 | 94.2
COc1ncnc(C2CC2)c1-c1ncc2cnn(Cc3ccc(-c4nc(C(F)(F)F)cn4C(C)C)cc3)c2n1 + Cc1cnc(CNC(=O)c2c(=O)c3ccc(N4CCCN(C)CC4)nc3n3c2sc2ccccc23)cn1 | 96
O=c1[nH]cc(F)c(=O)[nH]1 + Cc1cnc(CNC(=O)c2c(=O)c3ccc(N4CCCN(C)CC4)nc3n3c2sc2ccccc23)cn1 | 103

Same assay, conditions: second compound 0.0316 µM; first compound 0.1 µM; stronger effect = lower value; spheroids with HUVEC and MSC

Compound | viability, T/C [%]
CCCS(=O)(=O)Nc1ccc(F)c(C(=O)c2c[nH]c3ncc(-c4ccc(Cl)cc4)cc23)c1F + Cc1cnc(CNC(=O)c2c(=O)c3ccc(N4CCCN(C)CC4)nc3n3c2sc2ccccc23)cn1 | 105
COc1ncnc(C2CC2)c1-c1ncc2cnn(Cc3ccc(-c4nc(C(F)(F)F)cn4C(C)C)cc3)c2n1 + Cc1cnc(CNC(=O)c2c(=O)c3ccc(N4CCCN(C)CC4)nc3n3c2sc2ccccc23)cn1 | 94
O=c1[nH]cc(F)c(=O)[nH]1 + Cc1cnc(CNC(=O)c2c(=O)c3ccc(N4CCCN(C)CC4)nc3n3c2sc2ccccc23)cn1 | 92.6

Same assay, conditions: second compound 0.0316 µM; first compound 0.316 µM; stronger effect = lower value; spheroids with HUVEC and MSC

Compound | viability, T/C [%]
CCCS(=O)(=O)Nc1ccc(F)c(C(=O)c2c[nH]c3ncc(-c4ccc(Cl)cc4)cc23)c1F + Cc1cnc(CNC(=O)c2c(=O)c3ccc(N4CCCN(C)CC4)nc3n3c2sc2ccccc23)cn1 | 117
COc1ncnc(C2CC2)c1-c1ncc2cnn(Cc3ccc(-c4nc(C(F)(F)F)cn4C(C)C)cc3)c2n1 + Cc1cnc(CNC(=O)c2c(=O)c3ccc(N4CCCN(C)CC4)nc3n3c2sc2ccccc23)cn1 | 87.8
O=c1[nH]cc(F)c(=O)[nH]1 + Cc1cnc(CNC(=O)c2c(=O)c3ccc(N4CCCN(C)CC4)nc3n3c2sc2ccccc23)cn1 | 98.9

Same assay, conditions: second compound 0.0316 µM; first compound 1 µM; stronger effect = lower value; spheroids with HUVEC and MSC

Compound | viability, T/C [%]
CCCS(=O)(=O)Nc1ccc(F)c(C(=O)c2c[nH]c3ncc(-c4ccc(Cl)cc4)cc23)c1F + Cc1cnc(CNC(=O)c2c(=O)c3ccc(N4CCCN(C)CC4)nc3n3c2sc2ccccc23)cn1 | 106
COc1ncnc(C2CC2)c1-c1ncc2cnn(Cc3ccc(-c4nc(C(F)(F)F)cn4C(C)C)cc3)c2n1 + Cc1cnc(CNC(=O)c2c(=O)c3ccc(N4CCCN(C)CC4)nc3n3c2sc2ccccc23)cn1 | 104
O=c1[nH]cc(F)c(=O)[nH]1 + Cc1cnc(CNC(=O)c2c(=O)c3ccc(N4CCCN(C)CC4)nc3n3c2sc2ccccc23)cn1 | 59.6

Same assay, conditions: second compound 0.0316 µM; first compound 3.16 µM; stronger effect = lower value; spheroids with HUVEC and MSC

Compound | viability, T/C [%]
CCCS(=O)(=O)Nc1ccc(F)c(C(=O)c2c[nH]c3ncc(-c4ccc(Cl)cc4)cc23)c1F + Cc1cnc(CNC(=O)c2c(=O)c3ccc(N4CCCN(C)CC4)nc3n3c2sc2ccccc23)cn1 | 117
